One experiment deals with T1, CDK2/Cyclin E (Homo sapiens, UniProt P24941).
T1 construct: purchased Eurofins 14-475
Description: CDK2/Cyclin E enzymatic phosphorylation assay (Caliper mobility shift). Further: 1.0 mM ATP or ATP Km. As to conditions: read-out: Enzyme CDK2/cyclin E IC50. The format is biochemical. Here is the method:
(§1) Reactions proceeded until between 10% to 20% total peptides were phosphorylated at room temperature (25° C.) and were terminated with 35 mM 2,2′,2″,2′″-(ethane-1,2-diyldinitrilo)tetraacetic acid (EDTA). Product was detected using the Caliper mobility shift detection method where the phosphorylated peptide (product) and substrate were electrophoretically separated and measured. Percent activity was plotted against log concentration of compound and points to generate an apparent IC50.

For the next experiment, the target named is T2, CDK1/Cyclin B1 (Homo sapiens, UniProt P06493).
T2 construct: GST; purchased BPS 40454
Description: CDK1/Cyclin B1 enzymatic phosphorylation assay (Caliper mobility shift). It counts as biochemical. To be noted: read-out: Enzyme CDK1/cyclin B1 IC50. Here is the method:
as §1

T2 sequence (P06493 whole entry): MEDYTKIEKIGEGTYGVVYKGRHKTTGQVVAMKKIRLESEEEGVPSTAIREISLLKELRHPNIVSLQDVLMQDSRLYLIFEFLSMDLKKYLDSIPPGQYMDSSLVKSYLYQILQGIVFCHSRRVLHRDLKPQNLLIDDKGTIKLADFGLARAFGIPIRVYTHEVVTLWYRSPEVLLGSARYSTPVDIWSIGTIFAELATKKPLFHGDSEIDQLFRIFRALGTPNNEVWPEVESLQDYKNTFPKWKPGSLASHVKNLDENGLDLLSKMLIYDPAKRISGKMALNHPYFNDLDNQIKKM
T2 sequence (P14635 whole entry partner): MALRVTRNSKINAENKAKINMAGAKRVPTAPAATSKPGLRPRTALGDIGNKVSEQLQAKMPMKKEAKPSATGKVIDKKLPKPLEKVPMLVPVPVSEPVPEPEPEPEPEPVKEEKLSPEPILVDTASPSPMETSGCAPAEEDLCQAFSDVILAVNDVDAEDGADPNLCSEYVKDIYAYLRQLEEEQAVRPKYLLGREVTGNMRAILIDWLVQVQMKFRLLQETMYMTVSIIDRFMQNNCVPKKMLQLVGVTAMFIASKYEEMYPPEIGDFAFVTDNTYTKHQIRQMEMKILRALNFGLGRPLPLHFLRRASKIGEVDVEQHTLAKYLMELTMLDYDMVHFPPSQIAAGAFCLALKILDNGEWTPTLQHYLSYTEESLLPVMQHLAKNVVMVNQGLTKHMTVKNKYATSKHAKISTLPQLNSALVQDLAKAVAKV

Consider `Cc1nn(CC2CCOCC2)c2nc(Nc3cc(C4COC4)[nH]n3)cnc12` [Example 8, 3-methyl-N-(5-(oxetan-3-yl)-1H-pyrazol-3-yl)-1-((tetrahydro-2H-pyran-4-yl)methyl)-1H-pyrazolo[3,4-b]pyrazin-6-amine], for which the IC50 at CDK2/Cyclin E was 37.1 nM; at CDK1/Cyclin B1 it was 2580 nM.

For `C[C@@H](c1ccccn1)n1ncc2ncc(Nc3cc(C4COC4)[nH]n3)nc21` [Example 55, (S)-N-(5-(oxetan-3-yl)-1H-pyrazol-3-yl)-1-(1-(pyridin-2-yl)ethyl)-1H-pyrazolo[3,4-b]pyrazin-6-amine], the figures for the IC50 at CDK2/Cyclin E and on CDK1/Cyclin B1 were 2 nM and 951 nM, respectively.

With `Cc1cc(Nc2cnc3cnn([C@@H](C)c4cccnc4Cl)c3n2)n[nH]1` [Example 26, (S)-1-(1-(2-chloropyridin-3-yl)ethyl)-N-(5-methyl-1H-pyrazol-3-yl)-1H-pyrazolo[3,4-b]pyrazin-6-amine], the IC50 on CDK2/Cyclin E is 4.2 nM; on CDK1/Cyclin B1, 1060 nM.

Take `C[C@@H](c1ccccc1)n1ncc2ncc(Nc3cc(C4COC4)[nH]n3)nc21` [Example 42, (S)-N-(5-(oxetan-3-yl)-1H-pyrazol-3-yl)-1-(1-phenylethyl)-1H-pyrazolo[3,4-b]pyrazin-6-amine]: the figures for the IC50 on CDK2/Cyclin E and at CDK1/Cyclin B1 were 2.3 nM and 592 nM, respectively.

Take `Cc1nn(CC2CCOCC2)c2nc(Nc3cc(C(C)C)[nH]n3)cnc12` [Example 6, N-(5-isopropyl-1H-pyrazol-3-yl)-3-methyl-1-((tetrahydro-2H-pyran-4-yl)methyl)-1H-pyrazolo[3,4-b]pyrazin-6-amine]: the results for the IC50 at CDK2/Cyclin E and at CDK1/Cyclin B1 were 3.7 nM and 388 nM, respectively.

`CC(=O)N1CCC[C@H](n2ncc3ncc(Nc4cc(C(C)C)[nH]n4)nc32)C1` [Example 59, (S)-1-(3-(6-((5-isopropyl-1H-pyrazolo-3-yl)amino)-1H-pyrazolo[3,4-b]pyrazin-1-yl)piperidin-1-yl)ethan-1-one]: the IC50 on CDK2/Cyclin E stood at 14.8 nM; at CDK1/Cyclin B1 it was 2370 nM.

Turning to `C[C@@H](C1CCOCC1)n1ncc2ncc(Nc3cc(C4COC4)[nH]n3)nc21` [Example 41, (S)-N-(5-(oxetan-3-yl)-1H-pyrazol-3-yl)-1-(1-(tetrahydro-2H-pyran-4-yl)ethyl)-1H-pyrazolo[3,4-b]pyrazin-6-amine], the IC50 on CDK2/Cyclin E was 1.7 nM; at CDK1/Cyclin B1 it was 334 nM.

Take `Fc1cccc(Cn2ncc3ncc(Nc4cc(C5COC5)[nH]n4)nc32)c1` [Example 46, 1-(3-fluorobenzyl)-N-(5-(oxetan-3-yl)-1H-pyrazol-3-yl)-1H-pyrazolo[3,4-b]pyrazin-6-amine]: the results for the IC50 on CDK2/Cyclin E and at CDK1/Cyclin B1 were 7.9 nM and 1060 nM, respectively.

`C[C@@H](c1ccccc1F)n1ncc2ncc(Nc3cc(C4COC4)[nH]n3)nc21` [Example 52, (S)-1-(1-(2-fluorophenyl)ethyl)-N-(5-(oxetan-3-yl)-1H-pyrazol-3-yl)-1H-pyrazolo[3,4-b]pyrazin-6-amine]: the figures for the IC50 on CDK2/Cyclin E and on CDK1/Cyclin B1 were 0.2 nM and 104 nM, respectively.

`Fc1ccc(Cn2ncc3ncc(Nc4cc(C5COC5)[nH]n4)nc32)cc1` [Example 47, 1-(4-fluorobenzyl)-N-(5-(oxetan-3-yl)-1H-pyrazol-3-yl)-1H-pyrazolo[3,4-b]pyrazin-6-amine]: the IC50 on CDK2/Cyclin E is 16 nM; on CDK1/Cyclin B1, 1380 nM.

As to `CC(C)c1cc(Nc2cnc3cnn(C[C@@H]4CCOC4)c3n2)n[nH]1` (single isomer, unassigned) [Example 12, (S)-N-(5-isopropyl-1H-pyrazol-3-yl)-1-((tetrahydrofuran-3-yl)methyl)-1H-pyrazolo[3,4-b]pyrazin-6-amine or (R)-N-(5-isopropyl-1H-pyrazol-3-yl)-1-((tetrahydrofuran-3-yl)methyl)-1H-pyrazolo[3,4-b]pyrazin-6-amine], the IC50 on CDK2/Cyclin E worked out at 0.5 nM; at CDK1/Cyclin B1, 119 nM.

With `CC(C)c1cc(Nc2cnc3cnn(C[C@@H]4CCCOC4)c3n2)n[nH]1` (single isomer, unassigned) [Example 10, (S)-N-(5-isopropyl-1H-pyrazol-3-yl)-1-((tetrahydro-2H-pyran-3-yl)methyl)-1H-pyrazolo[3,4-b]pyrazin-6-amine or (R)-N-(5-isopropyl-1H-pyrazol-3-yl)-1-((tetrahydro-2H-pyran-3-yl)methyl)-1H-pyrazolo[3,4-b]pyrazin-6-amine], the values for the IC50 at CDK2/Cyclin E and at CDK1/Cyclin B1 were 0.5 nM and 147 nM, respectively.

Regarding `CCc1cc(Nc2cnc3cnn([C@@H](C)c4cccnc4)c3n2)n[nH]1` [Example 32, (S)-N-(5-ethyl-1H-pyrazol-3-yl)-1-(1-(pyridin-3-yl)ethyl)-1H-pyrazolo[3,4-b]pyrazin-6-amine], the IC50 on CDK2/Cyclin E was 1.9 nM; at CDK1/Cyclin B1 it was 465 nM.

As for `Cc1nc2cnn(CC3CCOCC3)c2nc1Nc1cc(C(C)C)[nH]n1` [Example 17, N-(5-isopropyl-1H-pyrazol-3-yl)-5-methyl-1-((tetrahydro-2H-pyran-4-yl)methyl)-1H-pyrazolo[3,4-b]pyrazin-6-amine], the IC50 at CDK2/Cyclin E was 14.8 nM; at CDK1/Cyclin B1 it was 1650 nM.

On to `Fc1ccc(Cn2ncc3ncc(Nc4cc(C5COC5)[nH]n4)nc32)cn1` [Example 48, 1-((6-fluoropyridin-3-yl)methyl)-N-(5-(oxetan-3-yl)-1H-pyrazol-3-yl)-1H-pyrazolo[3,4-b]pyrazin-6-amine], for which the IC50 was 13.1 nM at CDK2/Cyclin E and 1840 nM on CDK1/Cyclin B1.

Regarding `C[C@H](c1cc(Nc2cnc3cnn(CC4CCOCC4)c3n2)n[nH]1)C(F)F` (single isomer, unassigned) [Example 20], the values for the IC50 at CDK2/Cyclin E and on CDK1/Cyclin B1 were 7.4 nM and 1010 nM, respectively.

With `C[C@@H](c1cccnc1Cl)n1ncc2ncc(Nc3cc(C#N)[nH]n3)nc21` [Example 24, (S)-3-((1-(1-(2-chloropyridin-3-yl)ethyl)-1H-pyrazolo[3,4-b]pyrazin-6-yl)amino)-1H-pyrazole-5-carbonitrile], the IC50 at CDK2/Cyclin E worked out at 20.3 nM; at CDK1/Cyclin B1, 3330 nM.

With `C[C@@H](c1cccc(F)c1)n1ncc2ncc(Nc3cc(C4COC4)[nH]n3)nc21` [Example 51, (S)-1-(1-(3-fluorophenyl)ethyl)-N-(5-(oxetan-3-yl)-1H-pyrazol-3-yl)-1H-pyrazolo[3,4-b]pyrazin-6-amine], the IC50 was found to be 1.8 nM at CDK2/Cyclin E and 422 nM on CDK1/Cyclin B1.

`CC(C)c1cc(Nc2cnc3cnn(CC4CCNCC4)c3n2)n[nH]1` [Example 62, N-(5-isopropyl-1H-pyrazol-3-yl)-1-(piperidin-4-ylmethyl)-1H-pyrazolo[3,4-b]pyrazin-6-amine]: the IC50 on CDK2/Cyclin E amounted to 16 nM; at CDK1/Cyclin B1, 1930 nM.

With `Cc1cc(Nc2cnc3cnn(C[C@H]4CCCOC4)c3n2)n[nH]1` [Example 5, (R)-N-(5-methyl-1H-pyrazol-3-yl)-1-((tetrahydro-2H-pyran-3-yl)methyl)-1H-pyrazolo[3,4-b]pyrazin-6-amine], the IC50 at CDK2/Cyclin E turned out to be 57.6 nM; on CDK1/Cyclin B1, 5230 nM.

For the molecule `Cc1cc(Nc2cnc3c(Cl)nn([C@@H](C)c4cccnc4F)c3n2)n[nH]1` [Example 28, (S)-3-chloro-1-(1-(2-fluoropyridin-3-yl)ethyl)-N-(5-methyl-1H-pyrazol-3-yl)-1H-pyrazolo[3,4-b]pyrazin-6-amine], the IC50 came to 5.6 nM at CDK2/Cyclin E and 2700 nM at CDK1/Cyclin B1.

With `C[C@@H](c1cc(Nc2cnc3cnn(CC4CCOCC4)c3n2)n[nH]1)C(F)F` (single isomer, unassigned) [Example 21], the IC50 at CDK2/Cyclin E is 5.4 nM; at CDK1/Cyclin B1 it was 595 nM.

For `c1nc2cnn(C[C@H]3[C@@H]4COC[C@@H]43)c2nc1Nc1cc(C2COC2)[nH]n1` [Example 16, 1-(((1R,5S,6s)-3-oxabicyclo[3.1.0]hexan-6-yl)methyl)-N-(5-(oxetan-3-yl)-1H-pyrazol-3-yl)-1H-pyrazolo[3,4-b]pyrazin-6-amine], the IC50 on CDK2/Cyclin E stood at 8.5 nM; at CDK1/Cyclin B1 it was 1020 nM.

For the molecule `CC[C@@H]([C@H](C)O)n1ncc2ncc(Nc3cc(C(C)C)[nH]n3)nc21` (single isomer, unassigned) [Example 13, (2S,3S)-3-(6-((5-isopropyl-1H-pyrazol-3-yl)amino)-1H-pyrazolo[3,4-b]pyrazin-1-yl)pentan-2-ol or (2S,3R)-3-(6-((5-isopropyl-1H-pyrazol-3-yl)amino)-1H-pyrazolo[3,4-b]pyrazin-1-yl)pentan-2-ol], the IC50 on CDK2/Cyclin E worked out at 2.3 nM; at CDK1/Cyclin B1, 907 nM.

On to `Cc1cc(Nc2cnc3cnn([C@@H](C)c4cccnc4)c3n2)n[nH]1` [Example 15, (S)-N-(5-methyl-1H-pyrazol-3-yl)-1-(1-(pyridin-3-yl)ethyl)-1H-pyrazolo[3,4-b]pyrazin-6-amine], for which the results for the IC50 on CDK2/Cyclin E and on CDK1/Cyclin B1 were 29.2 nM and 5660 nM, respectively.

As to `Cc1cc(Nc2cnc3c(Cl)nn([C@@H](C)c4cccnc4)c3n2)n[nH]1` [Example 27, (S)-3-chloro-N-(5-methyl-1H-pyrazol-3-yl)-1-(1-(pyridin-3-yl)ethyl)-1H-pyrazolo[3,4-b]pyrazin-6-amine], the results for the IC50 on CDK2/Cyclin E and at CDK1/Cyclin B1 were 96.1 nM and 10000 nM, respectively.

Regarding `c1cncc(Cn2ncc3ncc(Nc4cc(C5COC5)[nH]n4)nc32)c1` [Example 34, N-(5-(oxetan-3-yl)-1H-pyrazol-3-yl)-1-(pyridin-3-ylmethyl)-1H-pyrazolo[3,4-b]pyrazin-6-amine], the IC50 on CDK2/Cyclin E was 10.8 nM; at CDK1/Cyclin B1 it was 1900 nM.

`CC(C)c1cc(Nc2cnc3cnn(CCCO)c3n2)n[nH]1` [Example 1, 3-(6-((5-isopropyl-1H-pyrazol-3-yl)amino)-1H-pyrazolo[3,4-b]pyrazin-1-yl)propan-1-ol]: the figures for the IC50 at CDK2/Cyclin E and on CDK1/Cyclin B1 were 21.5 nM and 2990 nM, respectively.

For the molecule `CC(C)c1cc(Nc2cnc3cnn(CC4CCN(C)CC4)c3n2)n[nH]1` [Example 64, N-(5-isopropyl-1H-pyrazol-3-yl)-1-((1-methylpiperidin-4-yl)methyl)-1H-pyrazolo[3,4-b]pyrazin-6-amine], the IC50 on CDK2/Cyclin E is 56 nM; at CDK1/Cyclin B1, 2080 nM.

The values are drawn from patent US20260217717A1, “CDK2 INHIBITORS” (BLUEPRINT MEDICINES CORPORATION, priority 2023, published 2026).
